From paper PMC10410440, “Preclinical PK investigation of a novel IDO1/TDO dual inhibitor—SHR9146 in mouse plasma and tissues by LC-MS/MS” (Frontiers in Oncology, 2023)
Where two headings read alike, the source gives them in different places.

Experiment: Plasma pharmacokinetics of SHR9146 in mice (LC-MS/MS, non-compartmental analysis)
Assay type: in vivo, ICR mice
Settings: for MRT inf: read-out: MRT0-∞
Method: ICR mice with body weight 16–26 g were supplied by Shanghai Lingchang Biotechnology Co., Ltd. (animal breeding license number SCXK (Shanghai) 2013-0018) and housed at Shanghai Institute of Materia Medica, Chinese Academy of Sciences [animal use license number SYXK (Shanghai) 2015-0027]. The mice used in this study were fasted overnight for 12 h but had free access to water. Food was supplied 4 h post-dose. All experiments in this study were conducted in accordance with the Guidelines for the Care and Use of Laboratory Animals of Shanghai Institute of Materia Medica, Chinese Academy of Sciences.
A total of 30 mice were randomly assigned into five groups with equal numbers, males and females. One group was intravenously administrated with 5 mg/kg SHR9146 dissolved in […] plus 95% saline (adjusted pH to 4.0) under sterile conditions. The remaining four groups were administered respectively with a single dose of 20 , 40, or 80 mg/kg or multiple doses of 20 mg/kg twice daily for 7 days, by oral gavage of SHR9146 dissolved in 0.5% CMC-Na. Blood samples were obtained from the fossa orbitalis vein at 15 and 30 min and 1.0, 2.0, 4.0, 6.0, 8.0, 10.0, and 24.0 h after oral gavage administration. An additional 5-min time point was included for iv injection, as well as the pre-drug administration time points on the fifth, sixth, and seventh days in the multiple-dose group. The blood samples were collected in EDTA K2 anticoagulant blood collection tubes and centrifuged at 1,000 rpm for 5 min at 4°C. The supernatant plasma samples were thus produced.
Briefly as follows, an aliquot of 25-μL plasma or tissue homogenate was spiked with 100 μL of internal standard solution (1 μg/mL for plasma, 0.2 μg/mL for tissue homogenate) and 300 μL of methanol added and vortex mixed for 60 s. The mixture was then centrifuged at 14,000 rpm at 4°C for 5.0 min, and the supernatant was diluted with methanol–water (4:1, v/v) in a ratio of 1:9 for the plasma or 1:1 for the tissue homogenate, and 5 μL of the resulting solution was injected for the LC-MS/MS analysis.
The pharmacokinetic parameters of SHR9146 in mouse plasma were estimated by Phoenix 1.4 software using a non-compartmental model.
The mean concentration–time curves of SHR9146 in mouse plasma after a single oral gavage dose of 20, 40, or 80 mg/kg, or a single intravenous dose of 5 mg/kg, or the 7th-day steady state after twice-daily multiple oral doses of 20 mg/kg are shown in Figure 5 (Table S6).

[1] = 20 mg/kg i.g. single dose, all mice (Totol, 3 male + 3 female), plasma
[2] = 20 mg/kg i.g. single dose, female mice, plasma
[3] = 20 mg/kg i.g. single dose, male mice, plasma
[4] = 20 mg/kg oral twice daily for 7 days vs single 20 mg/kg oral dose, mice
[5] = 40 mg/kg i.g. single dose, male mice, plasma
[6] = 80 mg/kg i.g. single dose, all mice (Totol, 3 male + 3 female), plasma
[7] = 80 mg/kg i.g. single dose, female mice, plasma
[8] = 80 mg/kg i.g. single dose, male mice, plasma
[9] = ICR, mouse, iv, 5 mg/kg i.v. single dose, female mice, plasma
[10] = ICR, mouse, iv, 5 mg/kg i.v. single dose, male mice, plasma
[11] = both sexes, ICR, mouse, iv, 5 mg/kg i.v. single dose, all mice (Totol, 3 male + 3 female), plasma
[12] = both sexes, ICR, mouse, plasma, intravenous, 5 mg/kg, 5 mg/kg i.v., read-out: plasma drug concentration, individual mice #1-#6
[13] = both sexes, ICR, mouse, plasma, intravenous, 5 mg/kg, 5 mg/kg i.v., read-out: plasma drug concentration, mean (n=6)
[14] = both sexes, ICR, mouse, plasma, oral, 20 mg/kg, 20 mg/kg i.g. bid, 7 days, 7th day, read-out: plasma drug concentration, individual mice #1-#6
[15] = both sexes, ICR, mouse, plasma, oral, 20 mg/kg, 20 mg/kg i.g. bid, 7 days, 7th day, read-out: plasma drug concentration, mean (n=6)
[16] = both sexes, ICR, mouse, plasma, oral, 20 mg/kg, 20 mg/kg i.g. single, read-out: plasma drug concentration, mean (n=6)
[17] = both sexes, ICR, mouse, plasma, oral, 40 mg/kg, 40 mg/kg i.g. single, read-out: plasma drug concentration, mean (n=6)

In the case of `OCCn1cc(-c2ccc(N3CCC([C@H]4c5c(F)cccc5-c5cncn54)CC3)cc2)cn1` [SHR9146], the “plasma drug concentration, individual mice #1-#6” value (shortened to “plasma drug concentration”) (5 mg/kg i.v., 4 h) is reported as “BLQ”, the “plasma drug concentration” value (5 mg/kg i.v., 6 h) is reported as “BLQ” and the “plasma drug concentration” value (5 mg/kg i.v., 8 h) is reported as “BLQ”. The “plasma drug concentration” value (5 mg/kg i.v., 10 h) was “BLQ”, the “plasma drug concentration” value (5 mg/kg i.v., 24 h) was “BLQ” and the “CL as share of the blood flow of mouse liver” value (5 mg/kg i.v., liver blood flow around 90 mL/min/kg (ref 23)) was 13.3%. The “Vd as share of the total body fluid of mice” value (5 mg/kg i.v., total body fluid around 0.725 L/kg (ref 23)) was 91.9%, the CL (20 mg/kg i.g. bid, 7 days (7th-day steady state), all mice (Totol, 3 male + 3 female), plasma) was 13.7 mL/min/kg and the CL (20 mg/kg i.g. bid, 7 days (7th-day steady state), female mice, plasma) was 13.7 mL/min/kg. The CL (20 mg/kg i.g. bid, 7 days (7th-day steady state), male mice, plasma) was 13.6 mL/min/kg, the “plasma drug concentration” value (20 mg/kg i.g. bid, 7 days, 7th day, 0 h) was “BLQ” and the “plasma drug concentration” value (20 mg/kg i.g. bid, 7 days, 7th day, 8 h) was “BLQ”. For the same compound, the “plasma drug concentration” value (20 mg/kg i.g. bid, 7 days, 7th day, 10 h) was “BLQ”, the “plasma drug concentration” value (20 mg/kg i.g. bid, 7 days, 7th day, 24 h) was “BLQ” and the “plasma drug concentration” value (20 mg/kg i.g. bid, 7 days, Fifth day, pre-drug administration) was “BLQ”. The “plasma drug concentration” value (20 mg/kg i.g. bid, 7 days, Sixth day, pre-drug administration) was “BLQ”, the “plasma drug concentration” value (20 mg/kg i.g. single (dose cell empty, taken from the line above), 24 h) was “BLQ” and the CL [1] was 20.5 mL/min/kg. It also gave a Vd [1] of 2.02 L/kg, a CL [2] of 18.6 mL/min/kg and a Vd [2] of 1.88 L/kg. The CL [3] was 22.8 mL/min/kg, the Vd [3] was 2.189 L/kg and the “plasma drug concentration” value (20 mg/kg i.g. single, 4 h) was “BLQ”. For the same compound, the “plasma drug concentration” value (20 mg/kg i.g. single, 6 h) was “BLQ”, the “plasma drug concentration” value (20 mg/kg i.g. single, 8 h) was “BLQ” and the “plasma drug concentration” value (20 mg/kg i.g. single, 10 h) was “BLQ”. For the same compound, the “steady-state AUC relative to single oral dose” value [4] was 1.55 fold, the “steady-state Cmax relative to single oral dose” value [4] was 1.08 fold and the “accumulation after multiple oral doses” value (20 mg/kg oral twice daily for 7 days, mouse plasma) was “no significant accumulation”. The CL [5] was 20.0 mL/min/kg, the Vd [5] was 3.07 L/kg and the “plasma drug concentration” value (40 mg/kg i.g. single, 6 h) was “BLQ”. For the same compound, the “plasma drug concentration” value (40 mg/kg i.g. single, 8 h) was “BLQ”, the “plasma drug concentration” value (40 mg/kg i.g. single, 10 h) was “BLQ” and the “plasma drug concentration” value (40 mg/kg i.g. single, 24 h) was “BLQ”. It also gave a CL [6] of 18.8 mL/min/kg, a Vd [6] of 5.19 L/kg and a CL [7] of 20.2 mL/min/kg. It also gave a Vd [7] of 4.00 L/kg, a CL [8] of 17.6 mL/min/kg and a Vd [8] of 6.22 L/kg. The “plasma drug concentration” value (80 mg/kg i.g. single, 6 h) was “BLQ”, the “plasma drug concentration” value (80 mg/kg i.g. single, 8 h) was “BLQ” and the “plasma drug concentration” value (80 mg/kg i.g. single, 24 h) was “BLQ”. For the same compound, the clearance [9] was 12.1 mL/min/kg, the MRT inf [9] was 0.882 h and the Vd (ICR, mouse, iv, 5 mg/kg i.v. single dose, female mice, plasma, read-out: Vd) was 0.638 L/kg. The clearance [10] was 12 mL/min/kg, the MRT inf [10] was 0.965 h and the Vd (ICR, mouse, iv, 5 mg/kg i.v. single dose, male mice, plasma, read-out: Vd) was 0.694 L/kg. The concentration at 8 h (ICR, mouse, plasma, intravenous, 5 mg/kg, 5 mg/kg i.v., 8 h, read-out: plasma drug concentration, individual mice #1-#6) was 149 ng/mL, the MRT inf (ICR, mouse, po, 20 mg/kg i.g. single dose, female mice, plasma) was 1.68 h and the MRT inf (ICR, mouse, po, 20 mg/kg i.g. single dose, male mice, plasma) was 1.6 h. The MRT inf (ICR, mouse, po, 40 mg/kg i.g. single dose, male mice, plasma) was 2.56 h, the MRT inf (ICR, mouse, po, 80 mg/kg i.g. single dose, female mice, plasma) was 3.29 h and the MRT inf (ICR, mouse, po, 80 mg/kg i.g. single dose, male mice, plasma) was 5.9 h. It also gave a clearance [11] of 12 mL/min/kg, an MRT inf [11] of 0.923 h and a Vd (both sexes, ICR, mouse, iv, 5 mg/kg i.v. single dose, all mice (Totol, 3 male + 3 female), plasma, read-out: Vd) of 0.666 L/kg. It also gave a concentration at 0.083 h [12] of 7880 ng/mL, a concentration at 0.083 h [13] of 6860 ng/mL and a concentration at 0.25 h [12] of 5210 ng/mL. It also gave a concentration at 0.25 h [13] of 5230 ng/mL, a concentration at 0.5 h [12] of 4530 ng/mL and a concentration at 0.5 h [13] of 3610 ng/mL. For the same compound, the concentration at 1 h [12] was 2450 ng/mL, the concentration at 1 h [13] was 2760 ng/mL and the concentration at 2 h [13] was 605 ng/mL. It also gave a concentration at 4 h (both sexes, ICR, mouse, plasma, intravenous, 5 mg/kg, 5 mg/kg i.v., 4 h, read-out: plasma drug concentration, mean (n=6)) of 126 ng/mL, an AUC(0-inf) (both sexes, ICR, mouse, plasma, iv, 5 mg/kg, 5 mg/kg i.v. single dose, all mice (Totol, 3 male + 3 female), plasma) of 6930 ng·h/mL and an AUC(0-t) (both sexes, ICR, mouse, plasma, iv, 5 mg/kg, 5 mg/kg i.v. single dose, all mice (Totol, 3 male + 3 female), plasma, read-out: AUC0-t) of 6760 ng·h/mL. It also gave a half-life (both sexes, ICR, mouse, plasma, iv, 5 mg/kg, 5 mg/kg i.v. single dose, all mice (Totol, 3 male + 3 female), plasma, read-out: t1/2 (converted)) of 0.713 h, a half-life (both sexes, ICR, mouse, plasma, mice, all doses and routes except the high oral dose (80 mg/kg), read-out: mean terminal half-life in plasma, range) of 0.699 to 1.66 h and a concentration at 0.25 h [14] of 4300 ng/mL. For the same compound, the concentration at 0.25 h [15] was 5710 ng/mL, the concentration at 0.5 h [15] was 8020 ng/mL and the concentration at 1 h [14] was 9900 ng/mL. It also gave a concentration at 1 h [15] of 9430 ng/mL, a concentration at 2 h [15] of 6170 ng/mL and a concentration at 3 h [15] of 3170 ng/mL. For the same compound, the concentration at 4 h (both sexes, ICR, mouse, plasma, oral, 20 mg/kg, 20 mg/kg i.g. bid, 7 days, 7th day, 4 h, read-out: plasma drug concentration, mean (n=6)) was 1590 ng/mL, the concentration at 6 h (both sexes, ICR, mouse, plasma, oral, 20 mg/kg, 20 mg/kg i.g. bid, 7 days, 7th day, 6 h, read-out: plasma drug concentration, mean (n=6)) was 453 ng/mL and the concentration at 8 h (both sexes, ICR, mouse, plasma, oral, 20 mg/kg, 20 mg/kg i.g. bid, 7 days, 7th day, 8 h, read-out: plasma drug concentration, mean (n=6)) was 58 ng/mL. For the same compound, the concentration at 10 h (both sexes, ICR, mouse, plasma, oral, 20 mg/kg, 20 mg/kg i.g. bid, 7 days, 7th day, 10 h, read-out: plasma drug concentration, individual mice #1-#6) was 58 ng/mL, the concentration at 24 h (both sexes, ICR, mouse, plasma, oral, 20 mg/kg, 20 mg/kg i.g. bid, 7 days, 7th day, 24 h, read-out: plasma drug concentration, individual mice #1-#6) was 54 ng/mL and the concentration at 0.25 h [16] was 7500 ng/mL. For the same compound, the concentration at 0.5 h [16] was 8140 ng/mL, the concentration at 1 h [16] was 4620 ng/mL and the concentration at 2 h [16] was 3980 ng/mL. The concentration at 3 h [16] was 2950 ng/mL, the concentration at 4 h (both sexes, ICR, mouse, plasma, oral, 20 mg/kg, 20 mg/kg i.g. single, 4 h, read-out: plasma drug concentration, mean (n=6)) was 526 ng/mL and the concentration at 6 h (both sexes, ICR, mouse, plasma, oral, 20 mg/kg, 20 mg/kg i.g. single, 6 h, read-out: plasma drug concentration, individual mice #1-#6) was 242 ng/mL. For the same compound, the concentration at 8 h (both sexes, ICR, mouse, plasma, oral, 20 mg/kg, 20 mg/kg i.g. single, 8 h, read-out: plasma drug concentration, individual mice #1-#6) was 194 ng/mL, the concentration at 0.25 h [17] was 4830 ng/mL and the concentration at 0.5 h [17] was 5310 ng/mL.
